# Molecular target: T1, Dihydrofolate reductase (Bos taurus, UniProt P00376)
# T1 sequence (P00376 whole entry): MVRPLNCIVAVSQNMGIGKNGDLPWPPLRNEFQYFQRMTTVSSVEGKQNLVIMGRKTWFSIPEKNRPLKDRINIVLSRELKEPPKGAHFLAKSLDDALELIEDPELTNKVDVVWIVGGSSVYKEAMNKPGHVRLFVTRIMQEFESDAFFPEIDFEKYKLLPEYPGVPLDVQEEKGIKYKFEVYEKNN
# Test: Dihydrofolate Reductase (DHFR) Inhibition Assay
# Settings: pH 7.4; 25 °C
row,Compound,IC50 [µM]
1,"COc1ccc(C(=S)NNC(=O)CSc2nc3cc(OC)c(OC)cc3c(=O)n2-c2ccc(OC)cc2)cc1 [1-[2-(6,7-Dimethoxy)-3-(4-methoxy-phenyl)-4-oxo-3,4-dihydroquinazolin-2-yl-thio)acetyl)-4-(4-methoxy)phenyl]thiosemicarbazide (23)]",0.6
2,"COc1ccc(-n2c(SCC(=O)NNC(=S)c3ccc(Cl)cc3)nc3ccc(Cl)cc3c2=O)cc1 [1-[2-(6-Chloro)-3-(4-methoxy-phenyl)-4-oxo-3,4-dihydroquinazolin-2-yl-thio)acetyl)-4-(4-chloro)phenyl]thiosemicarbazide (20)]",1.2
3,"COc1ccc(-n2c(SCC(=O)NN)nc3ccc(Cl)cc3c2=O)cc1 [2-[6-Chloro-3-(4-methoxyphenyl)-4-oxo-3,4-dihydroquinazolin-2-yl-thio] acetohydrazide (14)]",7.5
4,"COc1ccc(-n2c(SCC(=O)NN)nc3cc(OC)c(OC)cc3c2=O)cc1 [2-[(6,7-Dimethoxy)-3-(4-methoxyphenyl)-4-oxo-3,4-dihydroquinazolin-2-yl-thio] acetohydrazide (15)]",0.8
5,"COc1ccc(-n2c(SCc3nnc(Nc4ccc(Cl)cc4)s3)nc3cc(OC)c(OC)cc3c2=O)cc1 [6,7-Dimethoxy-2-((5-(4-chlorophenylamino)-1,3,4-thiadiazol-2-yl)methylthio)-3-(4-methoxyphenyl)quinazolin-4(3H)-one (30)]",14.7
6,"COc1ccc(Nc2nnc(CSc3nc4cc(OC)c(OC)cc4c(=O)n3-c3ccc(OC)cc3)s2)cc1 [6,7-Dimethoxy-2-((5-(4-methoxyphenylamino)-1,3,4-thiadiazol-2-yl)methylthio)-3-(4-methoxyphenyl)quinazolin-4(3H)-one (31)]",11.8
7,"COc1ccc(-n2c(SCc3nnc(Nc4ccc(Cl)cc4)s3)nc3ccc(Cl)cc3c2=O)cc1 [6-Chloro-2-((5-(4-chlorophenylamino)-1,3,4-thiadiazol-2-yl)methylthio)-3-(4-methoxyphenyl)quinazolin-4(3H)-one (28)]",0.4
8,COc1ccc(-n2c(=S)[nH]c3ccc(Cl)cc3c2=O)cc1 [6-Chloro-2-mercapto-3-(4-methoxyphenyl)quinazolin-4(3H)-ones (10)],11.5
9,"COc1ccc(Nc2nnc(CSc3nc4ccc(Cl)cc4c(=O)n3-c3ccc(OC)cc3)s2)cc1 [6-chloro-2-((5-(4-methoxyphenylamino)-1,3,4-thiadiazol-2-yl)methylthio)-3-(4-methoxyphenyl)quinazolin-4(3H)-one (29)]",4.4
10,"COc1ccc(-n2c(SCc3nnc(S)n3-c3ccc(Cl)cc3)nc3cc(OC)c(OC)cc3c2=O)cc1 [(6,7-Dimethoxy)-2-((4-(4-chlorophenyl)-5-mercapto-4H-1,2,4-triazol-3-yl)methylthio)-3-(4-methoxyphenyl)quinazolin-4(3H)-one (26)]",11
11,"COc1ccc(-n2c(S)nnc2CSc2nc3cc(OC)c(OC)cc3c(=O)n2-c2ccc(OC)cc2)cc1 [(6,7-Dimethoxy)-2-((4-(4-methoxyphenyl)-5-mercapto-4H-1,2,4-triazol-3-yl)methylthio)-3-(4-methoxyphenyl)quinazolin-4(3H)-one (27)]",10.8
12,"COc1ccc(-n2c(=S)[nH]c3cc(OC)c(OC)cc3c2=O)cc1 [(6,7-Dimethoxy)-2-mercapto-3-(4-methoxyphenyl)quinazolin-4(3H)-ones (11)]",29
13,"CCOC(=O)CSc1nc2cc(OC)c(OC)cc2c(=O)n1-c1ccc(OC)cc1 [Ethyl 2-(6,7-dimethoxy-3-(4-methoxyphenyl)-4-oxo-3,4-dihydroquinazolin-2-yl-thio)acetate (13)]",14.4
14,"CCOC(=O)CSc1nc2ccc(Cl)cc2c(=O)n1-c1ccc(OC)cc1 [Ethyl 2-(6-chloro-3-(4-methoxyphenyl)-4-oxo-3,4-dihydroquinazolin-2-yl-thio)acetate (12)]",1.7
15,"COc1ccc(-n2c(SCC(=O)N/N=C/c3ccc(Cl)cc3)nc3cc(OC)c(OC)cc3c2=O)cc1 [N'-[4-Chlorobenzylidene-2-(6,7-dimethoxy)-3-(4-methoxy-phenyl)-4-oxo-3,4-dihydroquinazolin-2-yl-thio]acetohydrazide (18)]",7.6
16,"COc1ccc(-n2c(SCC(=O)N/N=C/c3ccc(Cl)cc3)nc3ccc(Cl)cc3c2=O)cc1 [N'-[4-Chlorobenzylidene-2-(6-chloro)-3-(4-methoxy-phenyl)-4-oxo-3,4-dihydroquinazolin-2-yl-thio]acetohydrazide (16)]",19
17,"COc1ccc(/C=N/NC(=O)CSc2nc3cc(OC)c(OC)cc3c(=O)n2-c2ccc(OC)cc2)cc1 [N'-[4-Methoxybenzylidene-2-(6,7-dimethoxy)-3-(4-methoxy-phenyl)-4-oxo-3,4-dihydroquinazolin-2-yl-thio]acetohydrazide (19)]",8
18,"COc1ccc(/C=N/NC(=O)CSc2nc3ccc(Cl)cc3c(=O)n2-c2ccc(OC)cc2)cc1 [N'-[4-Methoxybenzylidene-2-(6-chloro)-3-(4-methoxy-phenyl)-4-oxo-3,4-dihydroquinazolin-2-yl-thio]acetohydrazide (17)]",0.01

# From BindingDB's records for doi:10.7270/Q2TX3D82 (Future University, 2017)
